Measurements taken from US20240360165A1, “INHIBITORS OF CYCLIN DEPENDENT KINASE 7 (CDK7)” (Syros Pharmaceuticals, Inc., priority 2016, published 2024).
Like-named read-outs stand apart in the source and are kept apart here.

Key:
[1] = target: CDK7/Cyclin H/MAT1 complex (Homo sapiens, UniProt P50613); assay: CDK7 inhibition assay (Caliper/LabChip EZ Reader kinase assay); type: biochemical; conditions: Table 1; CDK7/Cyclin H/MAT1 6 nM, ATP 2 mM, 35 min at 27° C.
Procedure, shortened: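 A Perkin Elmer Caliper/LabChip EZ Reader (Waltham, MA) platform served as the basis for this CDK7 kinase inhibition assay. The work was carried out by Biortus Biosciences, located in Jiangyin, Jiangsu Province, P.R. of China. Each CDK studied had its own kinase assay, and compounds were evaluated for their ability to block CDK7 activity.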

[2] = target: CDK9/Cyclin T1 complex (Homo sapiens, UniProt P50750); assay: CDK9 inhibition assay (Caliper/LabChip EZ Reader kinase assay); type: biochemical; conditions: Table 1; CDK9/Cyclin T1 8 nM, ATP 2 mM, 15 min at 27° C.
Sequence of CDK9/Cyclin T1 complex (P50750 whole entry, species assumed): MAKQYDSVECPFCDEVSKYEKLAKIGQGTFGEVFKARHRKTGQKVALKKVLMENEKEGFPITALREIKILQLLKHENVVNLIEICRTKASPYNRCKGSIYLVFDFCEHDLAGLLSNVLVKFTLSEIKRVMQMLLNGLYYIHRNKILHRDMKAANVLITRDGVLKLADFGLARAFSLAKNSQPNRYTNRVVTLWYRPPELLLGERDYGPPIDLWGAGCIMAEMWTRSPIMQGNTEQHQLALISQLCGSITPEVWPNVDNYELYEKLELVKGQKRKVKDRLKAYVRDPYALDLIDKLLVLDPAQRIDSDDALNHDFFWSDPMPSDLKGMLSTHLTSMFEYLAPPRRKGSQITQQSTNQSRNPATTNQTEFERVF
Sequence of CDK9/Cyclin T1 complex (O60563 whole entry partner, species assumed): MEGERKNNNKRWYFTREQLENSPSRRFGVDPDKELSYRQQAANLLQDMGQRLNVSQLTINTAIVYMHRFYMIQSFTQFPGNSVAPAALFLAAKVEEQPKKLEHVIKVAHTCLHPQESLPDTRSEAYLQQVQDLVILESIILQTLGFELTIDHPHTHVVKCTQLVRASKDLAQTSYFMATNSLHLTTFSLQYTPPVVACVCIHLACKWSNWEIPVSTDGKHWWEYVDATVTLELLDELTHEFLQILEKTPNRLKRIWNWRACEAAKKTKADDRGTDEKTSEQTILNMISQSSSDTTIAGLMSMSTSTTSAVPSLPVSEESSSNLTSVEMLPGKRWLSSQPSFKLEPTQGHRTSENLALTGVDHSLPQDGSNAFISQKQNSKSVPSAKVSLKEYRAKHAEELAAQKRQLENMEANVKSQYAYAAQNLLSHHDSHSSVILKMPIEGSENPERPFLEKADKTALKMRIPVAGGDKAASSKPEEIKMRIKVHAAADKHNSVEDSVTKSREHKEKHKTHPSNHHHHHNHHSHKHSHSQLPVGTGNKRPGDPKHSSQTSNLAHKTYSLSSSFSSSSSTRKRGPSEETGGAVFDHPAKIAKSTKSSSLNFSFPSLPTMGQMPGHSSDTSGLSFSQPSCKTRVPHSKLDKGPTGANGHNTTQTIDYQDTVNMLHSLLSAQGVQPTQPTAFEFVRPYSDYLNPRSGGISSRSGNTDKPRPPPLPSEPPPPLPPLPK
Procedure, shortened: (§1)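 Caliper/LabChip EZ Reader mobility-shift assays. CDK9/Cyclin T1 at 8 nM with 2 μM 5-FAM-CDK9tide peptide and 10 mM MgCl2; CDK2/Cyclin E1 at 0.5 nM with 2 μM 5-FAM-CDK7tide and 2 mM MgCl2.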

[3] = target: T1, CDK12 (aa686-1082)/Cyclin K complex (Homo sapiens, UniProt Q9NYV4); assay: CDK12 inhibition assay (Caliper/LabChip EZ Reader kinase assay); type: biochemical; conditions: Table 1; CDK12 (aa686-1082)/Cyclin K 50 nM, ATP 2 mM, 3 hr at 27° C.
T1 construct: CDK12 (aa686-1082)/Cyclin K complex
T1 sequence (Q9NYV4 686-1082, species assumed): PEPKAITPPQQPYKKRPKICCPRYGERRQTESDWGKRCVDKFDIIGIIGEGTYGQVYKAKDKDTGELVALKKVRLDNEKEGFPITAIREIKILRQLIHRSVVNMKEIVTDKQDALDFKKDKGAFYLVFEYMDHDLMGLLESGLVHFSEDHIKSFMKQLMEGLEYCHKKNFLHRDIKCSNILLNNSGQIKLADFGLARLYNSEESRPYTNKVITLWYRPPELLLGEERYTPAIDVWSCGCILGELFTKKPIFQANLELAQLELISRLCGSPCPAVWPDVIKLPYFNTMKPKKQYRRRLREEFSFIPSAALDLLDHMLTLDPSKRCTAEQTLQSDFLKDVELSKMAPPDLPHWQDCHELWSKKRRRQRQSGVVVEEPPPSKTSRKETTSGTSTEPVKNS
T1 sequence (O75909 whole entry partner, species assumed, the tested form may be a part): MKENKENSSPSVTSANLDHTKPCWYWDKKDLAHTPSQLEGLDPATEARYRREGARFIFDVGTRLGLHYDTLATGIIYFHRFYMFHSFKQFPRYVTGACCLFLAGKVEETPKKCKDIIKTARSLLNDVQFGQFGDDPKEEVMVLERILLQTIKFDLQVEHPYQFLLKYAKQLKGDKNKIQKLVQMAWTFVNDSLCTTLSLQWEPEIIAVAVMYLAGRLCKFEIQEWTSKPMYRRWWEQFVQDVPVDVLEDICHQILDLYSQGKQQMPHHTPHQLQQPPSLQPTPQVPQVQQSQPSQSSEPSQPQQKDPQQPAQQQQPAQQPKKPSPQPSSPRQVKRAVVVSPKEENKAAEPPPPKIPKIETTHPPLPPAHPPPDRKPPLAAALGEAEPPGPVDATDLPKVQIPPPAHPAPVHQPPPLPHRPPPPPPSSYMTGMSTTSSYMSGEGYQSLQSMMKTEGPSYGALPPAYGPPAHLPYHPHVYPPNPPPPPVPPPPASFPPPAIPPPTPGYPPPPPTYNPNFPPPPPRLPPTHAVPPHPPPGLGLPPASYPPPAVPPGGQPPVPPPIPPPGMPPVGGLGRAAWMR

[4] = target: CDK2/Cyclin E1 complex (Homo sapiens, UniProt P24941); assay: CDK2 inhibition assay (Caliper/LabChip EZ Reader kinase assay); type: biochemical; conditions: Table 1; CDK2/Cyclin E1 0.5 nM, ATP 2 mM, 35 min at 27° C.
Procedure, shortened: as §1

[5] = tested on: HCC70 cells; assay: Inhibition of proliferation of HCC70 cells (CyQUANT Direct Cell Proliferation Assay, 72 hour); type: cell-based, human; conditions: read-out: Inhibition of Proliferation of HCC70 Cells (calculated IC50)
Description: HCC70 cells are a cell line derived from human triple negative breast cancer. […] Known CDK inhibitors dinaciclib or N-((1S,3R)-3-((5-chloro-4-(1H-indol-3-yl) pyrimidin-2-yl)amino)cyclohexyl)-5-((E)-4-(dimethylamino)but-2-enamido)picolinamide and triptolide were used as positive controls. […] The cells were cultured at 37° C. in a humidified chamber in the presence of 5% CO2. Proliferation assays were conducted over a 72 hour time period. CyQUANT® Direct Cell Proliferation Assay (Life Technologies, Chicago, IL USA) was used to assess the anti-proliferative effects of the compounds following manufacturer's directions and utilizing the reagents supplied with the CyQUANT® Direct Cell kit.

Sequence of CDK7/Cyclin H/MAT1 complex (P50613 whole entry, species assumed): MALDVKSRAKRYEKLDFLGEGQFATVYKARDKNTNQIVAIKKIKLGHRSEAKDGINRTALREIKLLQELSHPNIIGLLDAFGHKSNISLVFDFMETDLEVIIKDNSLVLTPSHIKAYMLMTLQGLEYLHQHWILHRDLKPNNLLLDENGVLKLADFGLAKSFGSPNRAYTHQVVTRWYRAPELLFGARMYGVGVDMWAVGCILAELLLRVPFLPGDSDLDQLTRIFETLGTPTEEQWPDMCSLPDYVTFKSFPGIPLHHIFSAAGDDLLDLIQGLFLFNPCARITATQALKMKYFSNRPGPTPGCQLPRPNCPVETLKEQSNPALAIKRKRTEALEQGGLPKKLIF
Sequence of CDK7/Cyclin H/MAT1 complex (P51946 whole entry partner, species assumed): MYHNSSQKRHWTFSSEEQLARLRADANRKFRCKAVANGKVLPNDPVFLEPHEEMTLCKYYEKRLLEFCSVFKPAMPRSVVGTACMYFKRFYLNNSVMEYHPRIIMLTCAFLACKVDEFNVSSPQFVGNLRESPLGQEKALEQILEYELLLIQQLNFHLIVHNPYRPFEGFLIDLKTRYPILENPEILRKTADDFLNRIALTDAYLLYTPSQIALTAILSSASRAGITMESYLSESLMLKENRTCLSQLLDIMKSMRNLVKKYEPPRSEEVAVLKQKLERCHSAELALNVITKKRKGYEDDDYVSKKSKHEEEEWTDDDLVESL
Sequence of CDK7/Cyclin H/MAT1 complex (P51948 whole entry partner, species assumed): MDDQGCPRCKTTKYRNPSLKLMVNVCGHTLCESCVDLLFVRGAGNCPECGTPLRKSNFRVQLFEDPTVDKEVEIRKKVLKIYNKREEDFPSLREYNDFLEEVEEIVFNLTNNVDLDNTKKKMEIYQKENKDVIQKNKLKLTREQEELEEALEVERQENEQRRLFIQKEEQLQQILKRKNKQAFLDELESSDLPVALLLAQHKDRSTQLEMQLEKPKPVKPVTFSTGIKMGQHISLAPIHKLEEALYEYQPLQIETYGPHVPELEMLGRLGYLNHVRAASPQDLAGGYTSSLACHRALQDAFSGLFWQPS

Compound	IC50 [1]	IC50 [2]	IC50 [3]	IC50 [4]	IC50 [5]	IC50 ([5]; Homo sapiens, HCC70, 72 h)
Cn1cc(-c2nc(N[C@H]3CCCNC3)ncc2C(F)(F)F)c2cccc(S(C)(=O)=O)c21 [Compound 296]	20 to 200 nM	> 5000 nM	> 5000 nM	> 5000 nM	1000 to 5000 nM	–
CC[C@@]1(O)CCN(C(=O)c2ccc3c(-c4nc(N[C@H]5CCCNC5)ncc4C(F)(F)F)c[nH]c3c2)C1 (single isomer, unassigned) [Compound 309]	20 to 200 nM	> 5000 nM	200 to 5000 nM	> 5000 nM	–	1000 to 5000 nM
CCP(=O)(CC)c1ccc2c(-c3nc(N[C@H]4CCCNC4)ncc3C(F)(F)F)c[nH]c2c1 [Compound 379]	20 to 200 nM	> 5000 nM	> 5000 nM	> 5000 nM	–	1000 to 5000 nM
FC(F)(F)c1cnc(N[C@H]2CCCNC2)nc1-c1c[nH]c2cc(-c3ccc4ncsc4c3)ccc12 [Compound 343]	20 to 200 nM	200 to 5000 nM	200 to 5000 nM	200 to 5000 nM	100 to 1000 nM	–
Fc1cccc(-c2ccc3c(-c4nc(N[C@H]5CCCNC5)ncc4C(F)(F)F)c[nH]c3c2)c1 [Compound 345]	200 to 5000 nM	> 5000 nM	> 5000 nM	> 5000 nM	–	1000 to 5000 nM
Cc1ccncc1-c1ccc2c(-c3nc(NC4CCCNC4)ncc3C(F)(F)F)c[nH]c2c1 (centres unmarked) [Compound 336]	< 20 nM	200 to 5000 nM	200 to 5000 nM	200 to 5000 nM	–	< 100 nM
O=C(c1ccc2c(-c3nc(N[C@H]4CCCNC4)ncc3C(F)(F)F)c[nH]c2c1)N1C[C@@H](O)C(F)(F)C1 [Compound 349, [(4R)-3,3-difluoro-4-hydroxy-pyrrolidin-1-yl]-[3-[2-[[(3S)-3-piperidyl]amino]-5-(trifluoromethyl)pyrimidin-4-yl]-1H-indol-6-yl] methanone]	< 20 nM	200 to 5000 nM	200 to 5000 nM	200 to 5000 nM	–	100 to 1000 nM
O=C(c1ccc2c(-c3nc(N[C@H]4CCCNC4)ncc3C(F)(F)F)c[nH]c2c1)N1CC[C@@](O)(C(F)(F)F)C1 (single isomer, unassigned) [Compound 300]	< 20 nM	200 to 5000 nM	200 to 5000 nM	200 to 5000 nM	–	100 to 1000 nM

Continued, in another order:

IC50 [1]	IC50 [2]	IC50 [3]	IC50 [4]	Compound	IC50 [5]	IC50 ([5]; Homo sapiens, HCC70, 72 h)
< 20 nM	200 to 5000 nM	200 to 5000 nM	200 to 5000 nM	O=S(=O)(CF)c1ccc2c(-c3nc(N[C@H]4CCCNC4)ncc3C(F)(F)F)c[nH]c2c1 [Compound 365, 4-[6-(fluoromethylsulfonyl)-1H-indol-3-yl]-N-[(3S)-3-piperidyl]-5-(trifluoromethyl)pyrimidin-2-amine]	–	100 to 1000 nM
< 20 nM	200 to 5000 nM	200 to 5000 nM	200 to 5000 nM	O=C(c1ccc2c(-c3nc(N[C@H]4CCCNC4)ncc3C(F)(F)F)c[nH]c2c1)N1C[C@H](O)C(F)(F)C1 [Compound 308, [(4S)-3,3-difluoro-4-hydroxy-pyrrolidin-1-yl]-[3-[2-[[(3S)-3-piperidyl]amino]-5-(trifluoromethyl)pyrimidin-4-yl]-1H-indol-6-yl]methanone]	–	100 to 1000 nM
< 20 nM	> 5000 nM	200 to 5000 nM	200 to 5000 nM	Oc1ncccc1-c1ccc2c(-c3nc(N[C@H]4CCCNC4)ncc3C(F)(F)F)c[nH]c2c1 [Compound 310, 3-[3-[2-[[(3S)-3-piperidyl]amino]-5-(trifluoromethyl)pyrimidin-4-yl]-1H-indol-6-yl]pyridin-2-ol]	–	100 to 1000 nM
< 20 nM	200 to 5000 nM	200 to 5000 nM	200 to 5000 nM	FC(F)(F)c1cnc(N[C@H]2CCCNC2)nc1-c1c[nH]c2cc(-c3cnccn3)ccc12 [Compound 328]	< 100 nM	–
< 20 nM	200 to 5000 nM	200 to 5000 nM	200 to 5000 nM	FC(F)(F)Sc1cnc(NC2CCCNC2)nc1-c1c[nH]c2ccccc12 (centres unmarked) [Compound 305, 4-(1H-indol-3-yl)-N-(piperidin-3-yl)-5-((trifluoromethyl)thio)pyrimidin-2-amine]	–	1000 to 5000 nM
